Counter-ions that a name gives are not always drawn.
What was measured:
[1] = Pharmacokinetics, monkey oral study; assay type: in vivo, cynomolgus monkeys; settings: for AUC: male, cynomolgus monkey, plasma, po, monkey plasma, label = analyte
Excerpt: Pharmacokinetic Data Analysis.
Statistical Data Analysis.
Plasma concentration vs. time data was subjected to noncompartmental pharmacokinetic (PK) analysis.

[2] = Pharmacokinetics, monkey IV study; settings: male, cynomolgus monkey, plasma, 5 mg/kg, Compound W dosed IV 5 mg/kg in D5W, label = analyte
Enterococcus faecalis = experiment: Gyrase MIC, microdilution broth method (Protocol 1); settings: for MIC: ATCC29212
Streptococcus pneumoniae = experiment: as above; settings: for MIC: ATCC10015
Bacillus cereus = experiment: as above; assay type: cell-based
[3] = Seven-day oral (gavage) toxicity and toxicokinetics study in rats; assay type: in vivo, Crl:CD(SD) rats; settings: for Mean food consumption: Compound 13 once daily 100 or 200 mg/kg, Compound 23A twice daily 300 mg/kg, not considered adverse; for adverse observations / mean body weight: 7 days oral gavage; for histopathological findings: any dose regimen; for exposures for different dosage levels: toxicokinetics; for NOEL (No-Observable-Effect-Level) / dose levels without adverse toxicity: male, 7 days
Excerpt: Crl:CD(SD) rats were obtained from Charles River Laboratories of Stone Ridge, N.Y. The animals were laboratory bred and experimentally naïve. Rats were chosen because they are a species that is commonly used for nonclinical toxicity evaluations.
Forty rats (20 noncannulated males and 20 males with jugular vein cannulas) were ordered. From these animals, 15 noncannulated males and 15 cannulated males were used. Animals were as uniform in age as possible. The rats were prepubertal to young adult, approximately 9 weeks of age at initiation of dosing. Their supplier-calculated birth date was retained in the study records. The weight range for the animals at the time of allocation to groups was 218.5-306.3 g.
Animals received the test article or vehicle by oral gavage for 7 consecutive days and were terminated the day following completion of dosing. The first day of dosing was designated as Day 1 of the study. The animals were evaluated for changes in clinical signs, body weight, and other parameters as described below.
The vehicle and test article were administered by oral gavage once daily for 7 consecutive days at a dose volume of 10 mL/kg body weight for Group A and Groups B-D, respectively. The test article and vehicle were administered by oral gavage twice daily, approximately 8 hours apart, for 7 consecutive days at a dose volume of 10 mL/kg body weight for Group E and Group F, respectively. The actual volume administered to each animal was calculated and adjusted based on the most recent body weight of each animal.
The postdosing observations made during treatment occurred at the following times based on Cmax/Tmax for the two compounds from previous studies:
Prior to start of dosing, body weights were measured for randomization on Day 1. During the treatment, body weights were measured on Day 1 and Day 7. In addition, fasted body weights were measured prior to necropsy for calculation of organ/body weight ratios.
Throughout the study, food consumption was measured daily starting 3 days prior to start of dosing.
Blood samples for evaluation of hematology, coagulation, and serum chemistry parameters were collected from all animals from the retro-orbital plexus (under CO2/O2 anesthesia, for the main study animals) or jugular vein cannula (for the toxicokinetic animals) prior to necropsy. Due to residual heparin used to keep the cannulas patent for the toxicokinetic animals, coagulation samples from these rats, were not able to be analyzed. The animals were fasted overnight prior to blood collection. On the day of blood collection for clinical pathology analyses, the animals were not necropsied until after the blood was collected and the samples judged to be acceptable by the clinical pathology group.
An appropriate amount of blood was collected in EDTA-containing tubes. The whole blood samples were analyzed for the parameters indicated below in Table 11.
An appropriate amount of blood was collected in tubes containing sodium citrate and then centrifuged to obtain plasma for the determination of prothrombin time (PT) and activated partial thromboplastin time (APTT).
An appropriate amount of blood was collected in tubes without anticoagulant. The sample was allowed to clot and then was centrifuged to obtain serum. The serum was analyzed for the parameters indicated below in Table 12.
On the 1st and 7th day of dosing, blood samples (approximately 0.5 mL/sample) were collected from the jugular vein cannula for all toxicokinetic animals at the timepoints listed below into K3EDTA-containing tubes. […] Prior to each collection, a small sample of blood (with heparin blocking solution) was removed from the cannula and discarded. A new syringe was placed on the cannula, and the protocol-required sample was taken. The syringe with the blood sample was removed, and a new syringe with saline attached to the cannula. Blood volume was replaced with an equal volume of saline and then blocking solution placed in the cannula. […]

[4] = 100 mg/kg, Compound W dosed PO 100 mg/kg in 0.5% MC, read-out: AUCextrap
[5] = ATCC10987, Bacillus cereus ATCC 10987
[6] = ATCC14579, Bacillus cereus ATCC 14579
[7] = 300 mg/kg twice a day, compared to controls treated twice a day

Structure (SMILES) | AUC [1, 4] | AUC ([2]; AUCextrap) | MIC (Enterococcus faecalis) | MIC (Streptococcus pneumoniae) | MIC (Bacillus cereus; [5]) | MIC (Bacillus cereus; [6]) | Mean food consumption [3] | adverse observations / mean body weight ([3]; male rats) | histopathological findings ([3]; male rats) | exposures for different dosage levels ([3]; male rats) | NOEL (No-Observable-Effect-Level) ([3]; Crl:CD(SD), rat, in vivo, po) | dose levels without adverse toxicity ([3]; Crl:CD(SD), rat, in vivo, po) | further results
CCNC(=O)Nc1nc2cc(-c3cnc(C(C)(C)OP(=O)([O-])[O-])nc3)c(F)c([C@H]3CCCO3)c2[nH]1.[Na+].[Na+] [Compound W, disodium (R)-2-(5-(2-(3-ethylureido)-6-fluoro-7-(tetrahydrofuran-2-yl)-1H-benzo[d]imidazol-5-yl)pyrimidin-2-yl)propan-2-yl phosphate] | 437 ng·h/mL | 5830 ng·h/mL | 1 µg/mL | 0.25 µg/mL |  |  |  |  |  |  |  |  | conversion in vivo into Compound 23 ([1]; in at least rats, dogs and monkeys (all pharmacokinetic studies)): converted in vivo into Compound 23; AUC ([1]; 30 mg/kg, Compound W dosed PO 30 mg/kg in 0.5% MC, read-out: AUC): 45.3 ng·h/mL; AUC ([1]; 100 mg/kg, Compound W dosed PO 100 mg/kg in 0.5% MC, read-out: AUC): 432 ng·h/mL; AUC ([1]; 300 mg/kg, Compound W dosed PO 300 mg/kg in 0.5% MC, read-out: AUC): 3690 ng·h/mL; AUC ([2]; AUC): 5790 ng·h/mL
CCNC(=O)Nc1nc2cc(-c3cnc(C(C)(C)O)nc3)c(F)c([C@H]3CCCO3)c2[nH]1 [Compound 23, 1-ethyl-3-[6-fluoro-5-[2-(1-hydroxy-1-methyl-ethyl)pyrimidin-5-yl]-7-[(2R)-tetrahydrofuran-2-yl]-1H-benzimidazol-2-yl]urea] | 76900 ng·h/mL | 3810 ng·h/mL |  |  |  |  |  |  |  |  |  |  | AUC ([1]; 30 mg/kg, Compound W dosed PO 30 mg/kg in 0.5% MC, read-out: AUCextrap): 24800 ng·h/mL; AUC ([1]; 300 mg/kg, Compound W dosed PO 300 mg/kg in 0.5% MC, read-out: AUCextrap): 155000 ng·h/mL
CCNC(=O)Nc1nc2cc(-c3cnc(C(C)(C)O)nc3)c(F)c([C@H]3CCCO3)c2[nH]1 [Compound 23A, methanesulfonic acid salt of 1-ethyl-3-[6-fluoro-5-[2-(1-hydroxy-1-methyl-ethyl)pyrimidin-5-yl]-7-[(2R)-tetrahydrofuran-2-yl]-1H-benzimidazol-2-yl]urea] |  |  |  |  | 0.031 µg/mL | 0.031 µg/mL | reduced during different intervals of the study | No adverse observations or effects on mean body weight | No test article-related histopathological findings | dose related | 100 mg/kg | ≤ 600 mg/kg/day | mean ALT [3, 7]: statistically higher; mean AST [3, 7]: statistically higher; NOAEL at 7 days ([3]; Crl:CD(SD), rat, in vivo, po, 300 mg/kg, male rats, twice a day for 7 days orally via gavage, read-out: NOAEL (No-Observable-Adverse-Effect-Level)): 300 mg/kg; AUC ([3]; Crl:CD(SD), rat, in vivo, male rats, 100 mg/kg once a day for 7 days, oral gavage): 82000 ng·h/mL; AUC ([3]; Crl:CD(SD), rat, in vivo, male rats, 300 mg/kg twice a day for 7 days, oral gavage): 291000 ng·h/mL
CCNC(=O)Nc1nc2cc(-c3cnc(C(C)(C)O)nc3)cc([C@H]3CCCO3)c2[nH]1 [Compound 13, methanesulfonic acid salt of 1-ethyl-3-[5-[2-(1-hydroxy-1-methyl-ethyl)pyrimidin-5-yl]-7-[(2R)-tetrahydrofuran-2-yl]-1H-benzimidazol-2-yl]urea] |  |  | 0.081 µg/mL | 0.022 µg/mL | 0.5 µg/mL | 0.5 µg/mL | reduced during different intervals of the study | No adverse observations or effects on mean body weight | No test article-related histopathological findings | dose related | 200 mg/kg | up to 200 mg/kg/day | AUC at 7 day ([3]; Crl:CD(SD), rat, in vivo, male rats, 200 mg/kg once a day for 7 days, oral gavage): 844000 ng·h/mL; MIC90 (Enterococcus faecalis): 0.25 µg/mL; MIC Range (Enterococcus faecalis; 34 isolates tested, Protocol 1): 0.03 to 0.25 µg/mL; MIC90 (Streptococcus pneumoniae): 0.06 µg/mL; MIC Range (Streptococcus pneumoniae; 67 isolates tested, Protocol 1): 0.015 to 0.06 µg/mL

— patent US8481551B2, “Gyrase and topoisomerase IV inhibitors” (Vertex Pharmaceuticals Incorporated, priority 2011, dated 2013)
